Measured values reported in patent US9981901B2, “IRE-1α inhibitors” (FOSUN ORINOVE PHARMATECH, INC., priority 2007, dated 2018).

Tests used:
[1] = system: RPMI-8226 multiple myeloma cells; assay: Proliferation of multiple myeloma cells (CellTiter-Glo); assay type: cell-based, human; settings: RPMI8226, 24 hours, 100 μM to 0 μM
Method: FIG. 5. Graph showing inhibition of proliferation of multiple myeloma cells by IRE-1α inhibitor 11-28 (Example 11). RPMI-8226 multiple myeloma cells were seeded at 20,000 cells per well in RPMI culture medium containing 1% FBS and the required antibiotics. The plate was incubated overnight at 37° C., 95% air, 5% CO2. The following day, compound 11-28 or medium alone was added to wells, resulting in a final volume of 100 μl per well. The compound concentration ranged from 100 μM to 0 μM, with compounds diluted by a factor of 4. After addition of compound, the plate was incubated at 37° C., 95% air, 5% CO2 for 24 hours. Cell proliferation was measured using the CellTiter-Glo assay (Promega), following the manufacturer's instructions.
Proliferation assays using myeloma cell lines (U266, RPMI8226 and MM.1s) are used to determine ED50. Compounds are used as single agents and in combination with other chemotherapeutic drugs.

[2] = system: phosphorylated IRE-1α and XBP1-splicing in RPMI8226 cells; assay: Western blot and RT-PCR of bortezomib-treated RPMI8226 cells; assay type: cell-based, human; settings: 24 hour treatment
[3] = system: human myeloma RPMI8226 tumor xenografts; assay: RPMI8226 xenograft efficacy model; assay type: in vivo, mouse; settings: SCID mice, 0.75 mg/kg IV twice weekly
Method: Mice are monitored for tumor growth, regression and general health. Tumors are collected and characterized by immunohistochemistry and/or FACS analysis. Tumor growth is measured by calipers, ultrasound, or by abdominal lavage. Biomarkers in the blood or tumor can evaluated (primarily XBP-1 splicing).

primary murine B cells = assay: IgM secretion after LPS stimulation of primary B cells; assay type: cell-based, mouse; settings: added at beginning of stimulation and again at 24 hours; all doses down to 100 nM
Method: FIG. 9. Inhibition of IgM secretion after LPS stimulation of primary murine B cells with selected IRE-1α inhibitors. […] However, compounds had little effect when at added after 40 hours of stimulation; only slight inhibition at the highest dose. Methods were performed as previously described by Iwakoshi et al., Nature 4, 321-29, 2003 for B cell stimulation, plasma cell differentiation and IgM secretion. Primary B cells were Isolated from BALB/c splenocytes using mouse CD43 Microbeads (Miltenyi cat#130-049-801) with 1×10^6 cells per treatment. Purified B cells were stimulated in B Cell Media at a final density of 1×10^6/ml/well in 24-well plates with 20 μg/ml LPS (Sigma cat# L4391). IRE-1α inhibitor compound 17-1 was added at various concentrations (50 μM, 10 μM, 2 μM, 0.4 μM and 0.08 μM) at specified time points (t=0, t=24 hr, t=40 hr, etc.) Cells were incubated for 48 hr at 37° C. At end of the incubation, cells were spun in a plate at 1500 rpm/3 min. Supernatants were collected for quantitation for IgM secretion using a mouse IgM ELISA Kit (Bethyl Labs cat# E90-101). B Cell medium included RPMI+10% FBS supplemented with NEAA, HEPES, NaPyr, PSQ, and β-mercaptoethanol.

`COc1cc(-c2cccs2)cc(C=O)c1O` [11-28] was tested, and the “inhibition of cell proliferation” value [1] was “inhibits the proliferation”.
For `CC(C)C[C@H](NC(=O)[C@H](Cc1ccccc1)NC(=O)c1cnccn1)B(O)O` [bortezomib, [(1R)-3-methyl-1-[[(2S)-1-oxo-3-phenyl-2-[(pyrazinylcarbonyl)amino]propyl]amino]butyl] boronic acid], the XBP1-splicing [2] was “increases”, the “levels of phosphorylated IRE-1α” value [2] was “increases” and the tumor growth [3] was “suppression of tumor growth”.
`CN(C)C(=O)c1ccc(-c2ccc3c(C=O)c(O)ccc3c2)cc1` [compound 17-1, 4-(5-formyl-6-hydroxynaphthalen-2-yl)-N,N-dimethylbenzamide] was tested, and the IgM secretion (primary murine B cells) was “blocked IgM secretion”.
